Here are results for 4 compounds from US12533095B1, “Airway mucus scoring system” (The Regents of the University of California, priority 2016, dated 2026).

For one experiment, the system named is eosinophils. In words: Cysteine cross-linking assay (BODIPY labeled cysteine exposed to eosinophils). It counts as cell-based, human. The following applies: unstimulated and PMA-stimulated eosinophils; vs catalase-free control (FIG. 11H). Here is the method:
Eosinophil Isolation and stimulation of respiratory burst: Eosinophils were purified from the peripheral blood of 4 atopic asthmatic subjects (age 48±23 years). Each subject donated 100 mL of blood on one or more occasions. All subjects signed consent forms and usage was approved by the UCSF Committee on Human Research. Eosinophils were isolated from whole blood using a three-step method in which we first pelleted the cells, followed by water lysis to remove red blood cells and finally eosinophils were purified using immunomagnetic beads (Human Eosinophil Isolation kit. Miltenyi Biotec). Briefly, whole blood was collected in EDTA (purple-top) tubs and pelleted at 1500 g for 15 minutes at 4° C. The plasma on top was removed and cell pellet retained for two cycles of water lysis. […]
Cysteine cross-linking assay: To explore cystine formation generated by eosinophil stimulation, BODIPY FL L-cysteine was generated from […] BODIPY FL L-Cystine (ThermoFisher Scientific) in Tyrode's Salts by reduction with one quarter volume packed TCEP-Gel (ThermoFisher Scientific) for 1 hour at 25° C. The reaction yields an 8 to 10-fold increase in fluorescence at 490 nm/520 nm Ex/Em. […] The decrease in fluorescence at 490 nm/520 nm Ex/Em was monitored over 2 hours at 37° C. on a Synergy H1 plate reader (BioTek Instruments) with the addition of 50,000 peripheral blood eosinophils in 100 μl Tyrode's Salts. […]

Experiment [1] in a line: Systemic corticosteroid responsiveness test (SCRT). The class given is in vivo, human. Here is the method: Systemic Corticosteroid Responsiveness Test (SCRT): Patients were given an intramuscular injection of triamcinolone acetonide (40 mg) following complete characterization on visit 2. Repeat characterization post steroid injection (excluding MDCT), was carried out on visit 3 (2-4 weeks later) (FIG. 5). Treatment response to bronchodilators and systemic corticosteroids: Maximum Bronchodilator Reversibility tests (MBRT's) were performed on baseline visits 2 and 3. MBRT was determined by measuring spirometry before and after 360-720 meg of albuterol sulfate delivered by metered-dose inhaler. Patients also underwent a systemic corticosteroid response test (SCRT), which involved an intramuscular injection of triamcinolone acetonide (40 mg) on visit 2 and repeat characterization including MBRT and blood draw on visit 3 (2-4 weeks later). Induced Sputum: Sputum induction was done on visits 2 and 3. For safety, induced sputum was only collected from patients whose FEV1 was >50% predicted after albuterol pretreatment (360 μg). Total and differential cell counts were quantified in a central laboratory (Wake Forest University) using methods previously described^5,6. Gene expression for type 2 cytokines [interleukin (IL)-4, IL-5, and IL-13] and for airway gel-forming mucins (MUC5AC, MUC5B) were measured in RNA isolated from induced sputum cell pellets using real-time Taqman-based quantitative PCR (qPCR) 7 as described herein (including Table 3). RNA isolation and qPCR were done in a central laboratory (University of California at San Francisco).

Experiment [2] can be described thus: Bronchodilator reversibility testing repeated after intramuscular corticosteroid (combined SCRT and MBRT). It counts as in vivo, human. The following applies: patients with high mucus scores; bronchodilator reversibility testing repeated after intramuscular steroid. How it is done: Systemic Corticosteroid Responsiveness Test (SCRT): Patients were given an intramuscular injection of triamcinolone acetonide (40 mg) following complete characterization on visit 2. Repeat characterization post steroid injection (excluding MDCT), was carried out on visit 3 (2-4 weeks later) (FIG. 5). Treatment response to bronchodilators and systemic corticosteroids: Maximum Bronchodilator Reversibility tests (MBRT's) were performed on baseline visits 2 and 3. MBRT was determined by measuring spirometry before and after 360-720 meg of albuterol sulfate delivered by metered-dose inhaler. Patients also underwent a systemic corticosteroid response test (SCRT), which involved an intramuscular injection of triamcinolone acetonide (40 mg) on visit 2 and repeat characterization including MBRT and blood draw on visit 3 (2-4 weeks later). Maximum bronchodilator reversibility test (MBRT): Subjects were asked to hold their bronchodilator medications prior to spirometry testing. Following baseline spirometry, 4 puffs of albuterol (360 mcg) were administered. Spirometry was then repeated 15 minutes later. If the change in FEV1 from the spirometry maneuver performed after 4 puffs was greater than 5%, an additional 2 puffs of albuterol (180 mcg) were then administered and spirometry was repeated again 15 minutes later. […] MBRT was measured on baseline visits 2 and 3 (FIG. 5).

A short description of experiment [3]: Maximum bronchodilator reversibility test (MBRT). It counts as in vivo, human. Here is the method: Treatment response to bronchodilators and systemic corticosteroids: Maximum Bronchodilator Reversibility tests (MBRT's) were performed on baseline visits 2 and 3. MBRT was determined by measuring spirometry before and after 360-720 meg of albuterol sulfate delivered by metered-dose inhaler. Patients also underwent a systemic corticosteroid response test (SCRT), which involved an intramuscular injection of triamcinolone acetonide (40 mg) on visit 2 and repeat characterization including MBRT and blood draw on visit 3 (2-4 weeks later). Maximum bronchodilator reversibility test (MBRT): Subjects were asked to hold their bronchodilator medications prior to spirometry testing. Following baseline spirometry, 4 puffs of albuterol (360 mcg) were administered. Spirometry was then repeated 15 minutes later. If the change in FEV1 from the spirometry maneuver performed after 4 puffs was greater than 5%, an additional 2 puffs of albuterol (180 mcg) were then administered and spirometry was repeated again 15 minutes later. If the change in FEV1 after 6 puffs was greater than 5%, an additional 2 puffs of albuterol were administered with repeat spirometry after an additional 15 minutes. If the change was less than 5% after 4 or 6 puffs of albuterol, the procedure was stopped and the last maneuver was taken to be the highest achievable measure. No more than 8 puffs of albuterol were administered as part of the MBRT procedure. MBRT was measured on baseline visits 2 and 3 (FIG. 5).

Experiment [4] deals with primary human airway epithelial cells. In words: Apical secretion of Eotaxin-3 (CCL26) at air liquid interface. It counts as cell-based. Conditions: 10 ng/ml in basolateral media for 4 days; vs untreated control (FIG. 11E). An excerpt:
Apical secretion of Eotaxin-3 (CCL26): Human airway epithelial cells (AECs) were isolated from tracheas collected from cadaveric lung donors from the California Donor Network as a part of a separate study (Gordon et al., Proc Natl Acad Sci USA. 113, 8765-8770. doi: 8710.1073/pnas.1601914113. Epub 160191216 Jul. 1601914118. (2016)). Cells were expanded in 5% FCS in DMEM/F12 supplemented with a rho kinase inhibitor (Y-27632 SellekChem) to promote proliferation (Liu et al., Am J Pathol. 180, 599-607. doi: 510.1016/j.ajpath.2011.1010.1036. Epub 211 Dec. 1018. (2012)). Once cells reached 90% confluency flasks were washed and cells trypsinized with TrypLE (Gibco). Subconfluent cells were plated to submerged transwell inserts, using the modified Schlegel culture conditions previously described (Chu et al., Gene Ther. 22, 822-829. doi: 810.1038/gt.2015.1053. Epub 2015 July 1032. (2015)). Once cells reached confluence, the cultures were taken to air-liquid interface (ALI) in PnuemaCult Maintenance media (StemCell Technologies) and maintained for 21-days. At day 21, cells were treated with 10 ng/ml recombinant human IL-13 (R&D systems) in the basolateral media for 4 days. To measure eotaxins secreted at the apical surface of ALI cultures. 300 μL warmed PBS was added to the surface of the cells. […]

In the case of catalase, the cystine dimer formation entry with eosinophils is “significantly decreased”.
On to `CC1(C)O[C@@H]2C[C@H]3[C@@H]4CCC5=CC(=O)C=C[C@]5(C)[C@@]4(F)[C@@H](O)C[C@]3(C)[C@]2(C(=O)CO)O1` [triamcinolone acetonide], for which, in experiment [1] (asthma patients with high mucus scores, intramuscular 40 mg), the “patients with residual abnormalities in FEV1 following the SCRT” value came to 72%. Moreover, the “patients with residual FEV1 abnormalities following the SCRT” value in experiment [1] (asthma patients with zero mucus scores, intramuscular 40 mg) came to 28%. Besides, the “mean post steroid FEV1 lower in the high-mucus group than the zero-mucus group” value in experiment [1] (asthma patients, intramuscular 40 mg, high vs zero mucus group) was 21%. In experiment [1] (patients with a high mucus score (FIG. 10A)), the “Sputum eosinophil % following treatment with intramuscular steroid” value is “remains significantly increased”. In experiment [1] (patients with a high mucus score (FIG. 10B)), the “Gene expression for interleukin 13 in sputum cells following treatment with intramuscular steroid” value is “remains significantly increased”. In addition, the “Gene expression for interleukin 5 in sputum cells following treatment with intramuscular steroid” value in experiment [1] (patients with a high mucus score (FIG. 10C)) is “remains significantly increased”. The “FEV1% predicted post steroid treatment” value in experiment [1] (subjects with a high mucus score (FIG. 4B)) is on record as “remained significantly decreased”. Also, the “proportion of patients whose FEV1 remained below 80%” value in experiment [2] is given as “half”.
Regarding `CC(C)(C)NCC(O)c1ccc(O)c(CO)c1` (stereo not shown) [albuterol], in experiment [3] (asthma patients with a high mucus score), the “patients with residual abnormalities in FEV1 (FEV1 <80% predicted) following maximum bronchodilator testing” value is 73%. Also, the “patients with residual FEV1 abnormalities after maximum bronchodilation testing” value in experiment [3] (asthma patients with a zero-mucus score) is recorded as 20%. Moreover, the “mean post-bronchodilator FEV1 in the high mucus group lower than in the zero-mucus group” value in experiment [3] (asthma patients, inhaled albuterol (540-720 mcg), high vs zero mucus group) is 24%.
As for “IL-13: recombinant human IL-13 (R&D systems) used to stimulate airway epithelial cells”, the “concentration of eotaxin-3 in apical mucus secretions” value in experiment [4] is “marked increases”.
